Source: US7482344B2, “Tricyclic steroid hormone nuclear receptor modulators” (Eli Lilly and Company, priority 2003, dated 2009)

molecular target: T1, human GR (glucocorticoid receptor) (Homo sapiens, UniProt P04150); assay: Alternative Binding Assay Protocol (Method 2), 293-GR lysate, 3H-dexamethasone competition; conditions: 0.3 nM 3H-dexamethasone
T1 construct: expressed in transfected cells; host or cells: 293 cells
T1 sequence (P04150 1-777): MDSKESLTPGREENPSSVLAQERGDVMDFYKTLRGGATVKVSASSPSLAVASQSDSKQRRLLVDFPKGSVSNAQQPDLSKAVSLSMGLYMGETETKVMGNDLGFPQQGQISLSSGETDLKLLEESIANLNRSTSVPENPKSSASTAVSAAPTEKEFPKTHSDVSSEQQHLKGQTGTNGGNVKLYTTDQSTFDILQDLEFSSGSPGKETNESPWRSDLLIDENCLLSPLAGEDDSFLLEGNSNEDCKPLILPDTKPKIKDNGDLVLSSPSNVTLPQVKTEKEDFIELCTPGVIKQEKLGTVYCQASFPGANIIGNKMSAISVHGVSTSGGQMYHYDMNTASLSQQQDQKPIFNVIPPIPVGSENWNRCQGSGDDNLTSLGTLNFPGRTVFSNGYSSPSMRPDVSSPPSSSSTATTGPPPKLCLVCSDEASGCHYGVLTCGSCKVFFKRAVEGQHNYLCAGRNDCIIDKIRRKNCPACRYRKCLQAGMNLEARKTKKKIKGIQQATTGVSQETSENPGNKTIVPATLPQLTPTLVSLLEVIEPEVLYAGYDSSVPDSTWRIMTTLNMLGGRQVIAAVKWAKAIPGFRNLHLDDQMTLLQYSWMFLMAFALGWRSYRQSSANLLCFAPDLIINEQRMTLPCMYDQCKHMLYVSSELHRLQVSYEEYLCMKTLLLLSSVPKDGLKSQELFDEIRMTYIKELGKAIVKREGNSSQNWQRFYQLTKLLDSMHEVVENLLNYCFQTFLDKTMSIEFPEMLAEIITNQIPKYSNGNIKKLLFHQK
Procedure: Alternative Binding Assay Protocol for MR, GR, AR, and PR (Method 2):
Cell lysates from 293 cells overexpressing human GR (glucocorticoid receptor), AR (androgen receptor), MR (mineralocorticoid receptor) or PR (progesterone receptor) are used for competition binding assays to determine Ki values for test compounds. Briefly, competition binding assays are run in a buffer containing 20 mM Hepes, pH 7.6, 0.2 mM EDTA, 75 mM NaCl, 1.5 mM MgCl2, 20% glycerol, 20 mM sodium molybdate, 0.2 mM DTT, 20 ug/ml aprotinin and 20 ug/ml leupeptin, using either 0.3 nM ^3H-dexamethasone for GR binding, 0.36 nM ^3H-methyltrienolone for AR binding, 0.25 nM ^3H-aldosterone for MR binding, or 0.29 nM ^3H-methyltrienolone for PR binding, and either 20 ug 293-GR lysate, 22 ug 293-AR lysate, 20 ug 293-MR lysate or 40 ug 293-PR lysate per well. Competing compounds are added various concentrations in half-log increments. Non-specific binding is determined in the presence of 500 nM dexamethasone for GR binding, 500 nM aldosterone for MR binding, or 500 nM methyltrienolone for AR and PR binding. The binding reaction (140 μl) is incubated for overnight at 4° C. then 70 μl of cold charcoal-dextran buffer (containing per 50 ml of assay buffer, 0.75 g of charcoal and 0.25 g of dextran) is added to each reaction. Plates are mixed 8 minutes on an orbital shaker at 4° C. Plates are then centrifuged at 3,000 rpm at 4° C. for 10 minutes. An aliquot of 120 μl of the mix is transferred to another 96-well plate and 175 μl of Wallac Optiphase “Hisafe 3” scintillation fluid is added to each well. Plates are sealed and shaken vigorously on an orbital shaker. After an incubation of 2 hrs, plates are read in a Wallac Microbeta counter. The data is used to calculate an IC50 and % Inhibition at 10 μM. The Kd for ^3H-dexamethasone for GR binding, ^3H-methyltrienolone for AR binding, ^3H-aldosterone for MR binding, or ^3H-methyltrienolone for PR binding, is determined by saturation binding. The IC50 values for compounds are converted to Ki using Cheng-Prusoff equation and the Kd determined by saturation binding assay.

Row | Compound | Ki
1 | CC(=C1c2ccccc2Sc2ccccc21)c1cccc(N)c1 [Example 6] | < 500 nM
2 | CN1CCN(CCn2c(=O)[nH]c3cc(C=C4c5ccccc5Sc5ccccc54)ccc32)CC1 [Example 14] | < 10000 nM
3 | O=c1[nH]c2ccc(C=C3c4ccc(F)cc4Sc4cc(F)ccc43)cc2[nH]1 [Example 5, 5-(3,6-Difluoro-thioxanthen-9-ylidenemethyl)-1,3-dihydro-benzoimidazol-2-one] | < 1000 nM
4 | O=c1[nH]c2cc(C=C3c4ccccc4Sc4ccccc43)ccc2s1 [Example 12] | < 500 nM
5 | CS(=O)(=O)Nc1cccc(C=C2c3ccccc3Sc3ccccc32)c1 [Example 8] | < 500 nM
6 | Oc1ccccc1C=C1c2ccccc2Sc2ccccc21 [Example 15] | < 500 nM
7 | O=c1[nH]c2ccc(C=C3c4ccccc4Sc4ccccc43)cc2[nH]1 [Example 10] | < 10000 nM
8 | O=c1[nH]c2cc(C=C3c4ccccc4Sc4ccccc43)ccc2n1CCN1CCOCC1 [Example 13] | < 1000 nM
9 | O=c1[nH]c2cc(C=C3c4ccccc4Sc4ccccc43)ccc2o1 [Example 11] | < 500 nM
10 | Nc1cccc(C=C2c3ccccc3Sc3ccccc32)c1 [Example 9] | < 1000 nM
11 | CC(=C1c2ccccc2Sc2ccccc21)c1cccc(NS(C)(=O)=O)c1 [Example 4, 9-[1-(3-methylsulfonoylaminophenyl)ethylene] thioxanthine] | < 500 nM
